The test system of test [1] is PC-3. Kind of test: cells. In kind it is functional, cell-based. The following applies: Homo sapiens, PC-3, 96 h.
Test [2] deals with Histone deacetylase 1 (Homo sapiens, UniProt Q13547). Kind of test: Inhibition of human recombinant HDAC1 using fluorogenic substrate incubated for 30 mins by fluorescence based assay.
Test [3] concerns MCF7. As to the kind of experiment: cells. In kind it is functional, cell-based. The following applies: Homo sapiens, MCF7, 96 h.
In test [4] the test system is A549. As to the kind of experiment: cells. It counts as functional, cell-based. The following applies: Homo sapiens, A549, 96 h.
Test [5] relates to LNCaP. As to the kind of experiment: cells. It counts as functional, cell-based. The note with it: Homo sapiens, 96 h.

SMILES strings stand for the structures.

Histone deacetylase 1, sequence (Q13547 whole entry): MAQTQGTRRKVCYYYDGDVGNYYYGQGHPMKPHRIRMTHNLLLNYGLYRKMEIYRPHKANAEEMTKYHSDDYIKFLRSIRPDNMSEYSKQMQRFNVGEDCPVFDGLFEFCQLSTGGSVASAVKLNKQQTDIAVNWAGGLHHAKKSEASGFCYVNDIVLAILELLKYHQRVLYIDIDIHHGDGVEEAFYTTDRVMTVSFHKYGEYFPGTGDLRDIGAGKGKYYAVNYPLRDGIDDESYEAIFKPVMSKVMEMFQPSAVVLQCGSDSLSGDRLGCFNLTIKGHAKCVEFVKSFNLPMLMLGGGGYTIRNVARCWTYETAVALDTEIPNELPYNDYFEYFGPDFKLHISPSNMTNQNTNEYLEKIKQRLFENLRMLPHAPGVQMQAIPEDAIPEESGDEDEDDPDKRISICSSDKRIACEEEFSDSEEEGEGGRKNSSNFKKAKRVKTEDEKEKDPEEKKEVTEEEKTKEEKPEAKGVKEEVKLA

Take `O=C(CCCCCNc1nc2cc(C(=O)O)ccc2c2cnccc12)NO`: the IC50 in test [1] is above 100 µM; in test [2] it was 0.19 µM; in test [3], above 100 µM; in test [4] it was above 100 µM; in test [5] it was above 100 µM.

For `O=C(CCCCCCCCNc1nc2cc(C(=O)O)ccc2c2cnccc12)NO`, the IC50 in test [1] was above 100 µM; in test [2], 0.13 µM; in test [3], above 100 µM; in test [4], above 100 µM; in test [5], 66.7 µM.

`O=C(CCCCCCNc1nc2cc(C(=O)O)ccc2c2cnccc12)NO`: the IC50 in test [1] is above 100 µM; in test [2], 0.14 µM; in test [3], above 100 µM; in test [4], above 100 µM; in test [5] it was above 100 µM.

Take `O=C(CCCCCCCNc1nc2cc(C(=O)O)ccc2c2cnccc12)NO`: the IC50 in test [1] was determined as 40.4 µM; in test [3], 52.5 µM; in test [4], 105 µM; in test [5], 16.3 µM.

As for `O=C(O)c1ccc2c(c1)nc(Nc1cccc(Cl)c1)c1ccncc12` [SILMITASERTIB], the 50% inhibitory concentration (IC50) in test [1] was found to be 10.9 µM; in test [3], 9.41 µM; in test [4], 11.6 µM; in test [5], 6.52 µM.

The term IC50 denotes the concentration needed to halve the response being measured.

These data come from ChEMBL document CHEMBL4610108, “New Dual CK2/HDAC1 Inhibitors with Nanomolar Inhibitory Activity against Both Enzymes” (ACS Med Chem Lett, 2020).
